For nine compounds, IC50 results are on record in patent US20260297080A1, “BICYCLIC COMPOUNDS AS CDK INHIBITORS” (BeOne Medicines I GmbH, priority 2022, published 2026).

One experiment deals with CDK2/Cyclin E1 (Homo sapiens, UniProt P24941). The experiment can be described thus: CDK2/Cyclin E1 Biochemical Assay (TR-FRET), 0.060 mM ATP. As to conditions: 0.15 μM Rb (Ser780)-biotin substrate, pH7.0, 60 min preincubation, 120 min reaction, room temperature. In short, it runs like this: (§1)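 Enzyme + cpd (0–10 μM), 60 min RT; add ATP + 0.15 μM Rb(Ser780)-biotin, 120 min RT; 50 mM HEPES pH 7.0, 50 mM MgCl2, 1 mM DTT, 0.1 mM orthovanadate. Stop/detect with Eu anti-pRb + SA-XL665, 60 min; ratio 665/620 nm; IC50 by 4PL fit.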
(In general: In TR-FRET formats the signal depends on donor and acceptor labels being close together.)

Another experiment deals with CDK1/Cyclin B1 (Homo sapiens, UniProt P06493). Briefly: CDK1/Cyclin B1 Biochemical Assay (TR-FRET), 0.015 mM ATP. As to conditions: 0.15 μM Rb (Ser780)-biotin substrate, pH7.0, 60 min preincubation, 120 min reaction, room temperature. Summed up:
as §1

SMILES strings stand for the structures.

Sequence of CDK1/Cyclin B1 (P06493 whole entry): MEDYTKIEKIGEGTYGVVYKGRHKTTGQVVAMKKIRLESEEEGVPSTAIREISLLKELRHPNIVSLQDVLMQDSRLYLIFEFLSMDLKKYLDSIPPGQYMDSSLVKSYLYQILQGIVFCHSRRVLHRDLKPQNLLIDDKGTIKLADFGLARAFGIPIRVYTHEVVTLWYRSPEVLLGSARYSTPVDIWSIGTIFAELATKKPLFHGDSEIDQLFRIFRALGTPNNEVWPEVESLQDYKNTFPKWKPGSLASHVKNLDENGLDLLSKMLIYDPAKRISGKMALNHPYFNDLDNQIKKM
Sequence of CDK1/Cyclin B1 (P14635 whole entry partner): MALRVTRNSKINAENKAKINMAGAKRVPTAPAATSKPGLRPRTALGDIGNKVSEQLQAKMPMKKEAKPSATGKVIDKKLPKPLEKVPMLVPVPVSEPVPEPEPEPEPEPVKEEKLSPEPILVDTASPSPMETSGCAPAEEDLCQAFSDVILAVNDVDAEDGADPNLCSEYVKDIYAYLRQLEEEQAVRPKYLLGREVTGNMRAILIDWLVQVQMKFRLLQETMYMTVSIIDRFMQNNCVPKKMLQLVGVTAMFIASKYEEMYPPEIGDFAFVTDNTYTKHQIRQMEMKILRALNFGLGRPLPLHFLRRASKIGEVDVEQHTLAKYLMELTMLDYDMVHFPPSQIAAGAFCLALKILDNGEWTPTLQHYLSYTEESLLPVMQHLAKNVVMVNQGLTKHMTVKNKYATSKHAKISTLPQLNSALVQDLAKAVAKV

For `O=C(O[C@H]1CC[C@@H](c2cc(Nc3ccc4c(c3)CNS4(=O)=O)n[nH]2)C1)N1CCC(O)C1` (relative stereo) [Example 175, cis-3-(3-((1,1-dioxido-2,3-dihydrobenzo[d]isothiazol-5-yl)amino)-1H-pyrazol-5-yl)cyclopentyl 3-hydroxypyrrolidine-1-carboxylate], the IC50 on CDK2/Cyclin E1 amounted to 0.01 µM; on CDK1/Cyclin B1 it was 0.359 µM.

`CC1(O)CCN(C(=O)O[C@H]2CC[C@@H](c3cc(Nc4ccc5c(c4)CNS5(=O)=O)n[nH]3)C2)C1` (relative stereo) [Example 176, cis-3-(3-((1,1-dioxido-2,3-dihydrobenzo[d]isothiazol-5-yl)amino)-1H-pyrazol-5-yl)cyclopentyl 3-hydroxy-3-methylpyrrolidine-1-carboxylate]: the IC50 worked out at 0.008 µM against CDK2/Cyclin E1 and 0.23 µM on CDK1/Cyclin B1.

As for `CC1(NC(=O)O[C@H]2CC[C@@H](c3cc(Nc4ccc5c(c4)CNS5(=O)=O)n[nH]3)C2)CC1` (relative stereo) [Example 177, cis-3-(3-((1,1-dioxido-2,3-dihydrobenzo[d]isothiazol-5-yl)amino)-1H-pyrazol-5-yl)cyclopentyl(1-methylcyclopropyl)carbamate], the IC50 against CDK2/Cyclin E1 came out at 0.0011 µM; on CDK1/Cyclin B1 it was 0.027 µM.

For the compound `CCCNC(=O)O[C@H]1CC[C@@H](c2cc(Nc3ccc4c(c3)CNS4(=O)=O)n[nH]2)C1` (relative stereo) [Example 178, cis-3-(3-((1,1-dioxido-2,3-dihydrobenzo[d]isothiazol-5-yl)amino)-1H-pyrazol-5-yl)cyclopentyl propylcarbamate], the IC50 on CDK2/Cyclin E1 was 0.0015 µM; against CDK1/Cyclin B1 it was 0.041 µM.

Turning to `CC(C)NC(=O)O[C@H]1CC[C@@H](c2cc(Nc3cc(F)c4c(c3)S(=O)(=O)NC4)n[nH]2)C1` (relative stereo) [Example 179, cis-3-(3-((4-fluoro-1,1-dioxido-2,3-dihydrobenzo[d]isothiazol-6-yl)amino)-1H-pyrazol-5-yl)cyclopentyl isopropylcarbamate], the 50% inhibitory concentration (IC50) is 0.0003 µM on CDK2/Cyclin E1 and 0.0055 µM on CDK1/Cyclin B1.

On to `COc1c(Nc2cc([C@@H]3CC[C@H](OC(=O)NC(C)C)C3)[nH]n2)ccc2c1S(=O)(=O)NC2` (relative stereo) [Example 180, cis-3-(3-((7-methoxy-1,1-dioxido-2,3-dihydrobenzo[d]isothiazol-6-yl)amino)-1H-pyrazol-5-yl)cyclopentyl isopropylcarbamate], for which the values for the half-inhibitory concentration (IC50) on CDK2/Cyclin E1 and on CDK1/Cyclin B1 were 0.0029 µM and 0.102 µM, respectively.

For the compound `COc1c(Nc2cc([C@@H]3CC[C@H](OC(=O)NC(C)C)C3)[nH]n2)ccc2c1S(=O)(=O)NC2(C)C` (relative stereo) [Example 181, cis-3-(3-((7-methoxy-3,3-dimethyl-1,1-dioxido-2,3-dihydrobenzo[d]isothiazol-6-yl)amino)-1H-pyrazol-5-yl)cyclopentyl isopropylcarbamate], the IC50 at CDK2/Cyclin E1 was 0.058 µM; against CDK1/Cyclin B1, 1.25 µM.

`COc1cc2c(cc1Nc1cc([C@@H]3CC[C@H](OC(=O)NC(C)C)C3)[nH]n1)S(=O)(=O)NC2` (relative stereo) [Example 182, cis-3-(3-((5-methoxy-1,1-dioxido-2,3-dihydrobenzo[d]isothiazol-6-yl)amino)-1H-pyrazol-5-yl)cyclopentyl isopropylcarbamate]: the IC50 against CDK2/Cyclin E1 came out at 0.279 µM; on CDK1/Cyclin B1, 5.58 µM.

As to `COc1cc2c(cc1Nc1cc([C@@H]3CC[C@H](OC(=O)NC(C)C)C3)[nH]n1)S(=O)(=O)NC2(C)C` (relative stereo) [Example 183, cis-3-(3-((5-methoxy-3,3-dimethyl-1,1-dioxido-2,3-dihydrobenzo[d]isothiazol-6-yl)amino)-1H-pyrazol-5-yl)cyclopentyl isopropylcarbamate], the IC50 against CDK2/Cyclin E1 is 1.39 µM; against CDK1/Cyclin B1, 7.57 µM.

A word on the IC50: it is the concentration that gives 50% inhibition. High values mean a need for much substance, low ones inhibition by little substance.
